# Test results reported in patent publication US20250002475A1 (EPICS THERAPEUTICS, priority 2023, published 2025).
# Legend:
# Caov-3 cells = assay: Caov-3 cellular viability assay (ATP-Lite, 72 h); assay type: cell-based; settings: Homo sapiens, ATP-Lite luminescence, % viability relative to DMSO
# Experimental: Caov-3 cell line was purchased from ATCC (ATCC® HTB-75™). Cells were isolated from the ovary of a ovarian cancer patient.
# Caov-3 cells are cultured in DMEM (ATCC 30-2002) containing 10% heat-inactivated and 0.22 μm filtered FBS (Gibco 10270-106). The cells are seeded at 2.5E+4cell/cm^2 within the recommended subcultivation ratio of 1:3 to 1:6, as stated on the certificate of analysis issues by the provider of the cells.
# (§1) Cellular viability assay: Caov-3 cells were plated (50 μL) in 96-well cell culture microplates (PS, F-Bottom black, Cellstar, Greiner 655086) at final concentration of 10000 cells/well. The compounds of the invention were dissolved in DMSO, and a titration curve was generated at 1000× final concentration. Compounds were then diluted 500× in tissue culture medium (RPMI-1640, 10% FBS). Then 50 μl of test compound were added to Caov-3 cells in a final DMSO concentration of 0.1%, final volume 100 μl. A gas permeable sealing membrane was applied to the plate to prevent evaporation (Breathe-Easy sealing membrane, Sigma Z380059-1PK) and cells were incubated for 72 h at 37° C., 5% CO2, 80% RH. After 72 h of treatment, the plates were taken out of the incubator and left for a few minutes at room temperature. 100 μl of the reconstituted reagent ATP-Lite One Step (Perkin Elmer, 6016739) were added to each well. The plates were shaken for 2 min at 700 rpm and placed in the dark for 10 minutes at room temperature before measurement of luminescence intensity with Envision instrument. The raw data were expressed in RLU. Results were expressed in % of viability relative to DMSO control and an IC50 was calculated based on the concentration-response profile of individual compounds.
# [1] = target: T1, recombinant METTL3/METTL14 complex (Homo sapiens, UniProt Q86U44); assay: METTL3/14 Scintillation Proximity Assay (SPA), RNA methyltransferase activity; assay type: biochemical; settings: 5.31 nM METTL3/14 complex, 250 nM RNA substrate, 1 μM 3H-SAM, 90 min; for compounds marked * best of the two separated forms
# T1 construct: purchased Active Motif 311970; host or cells: Sf9 cells
# T1 sequence (Q86U44 whole entry): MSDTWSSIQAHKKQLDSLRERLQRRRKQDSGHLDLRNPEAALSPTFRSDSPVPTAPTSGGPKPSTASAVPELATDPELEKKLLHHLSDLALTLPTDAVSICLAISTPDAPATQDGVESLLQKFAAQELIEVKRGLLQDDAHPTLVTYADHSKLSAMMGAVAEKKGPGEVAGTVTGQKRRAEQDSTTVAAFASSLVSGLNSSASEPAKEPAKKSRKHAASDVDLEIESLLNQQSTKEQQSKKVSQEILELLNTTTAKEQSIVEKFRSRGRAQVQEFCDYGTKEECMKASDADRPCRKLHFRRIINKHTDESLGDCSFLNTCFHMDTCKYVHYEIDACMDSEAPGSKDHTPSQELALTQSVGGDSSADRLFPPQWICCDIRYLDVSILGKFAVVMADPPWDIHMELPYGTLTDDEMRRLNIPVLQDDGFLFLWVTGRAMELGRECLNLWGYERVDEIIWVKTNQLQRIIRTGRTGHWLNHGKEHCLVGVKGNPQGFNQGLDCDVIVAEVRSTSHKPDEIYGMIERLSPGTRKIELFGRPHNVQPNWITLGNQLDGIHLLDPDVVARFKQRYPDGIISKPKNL
# T1 sequence (Q9HCE5 whole entry partner): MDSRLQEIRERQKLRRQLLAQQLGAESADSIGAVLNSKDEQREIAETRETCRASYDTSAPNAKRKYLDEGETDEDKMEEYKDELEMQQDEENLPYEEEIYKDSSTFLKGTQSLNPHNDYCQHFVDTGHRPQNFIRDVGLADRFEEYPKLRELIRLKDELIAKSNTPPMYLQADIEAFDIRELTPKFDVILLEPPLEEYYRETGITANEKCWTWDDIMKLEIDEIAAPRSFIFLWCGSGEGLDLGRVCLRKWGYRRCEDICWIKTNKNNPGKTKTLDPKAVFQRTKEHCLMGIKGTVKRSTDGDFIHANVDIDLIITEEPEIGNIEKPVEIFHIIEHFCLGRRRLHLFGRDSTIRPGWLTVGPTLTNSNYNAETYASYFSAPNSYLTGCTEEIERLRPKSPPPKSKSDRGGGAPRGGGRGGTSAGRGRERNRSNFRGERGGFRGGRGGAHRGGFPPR
# Kasumi-1 cells = assay: Kasumi-1 cellular viability assay (ATP-Lite, 72 h); assay type: cell-based; settings: Homo sapiens, ATP-Lite luminescence, % viability relative to DMSO
# Experimental: Kasumi-1 cell line was purchased from ATCC (ATCC® CRL2724™). Cells were isolated from the peripheral blood of a child with acute myeloid leukemia (AML FAB M2) (in 2nd relapse after bone marrow transplantation) in 1989. Most cells are round. Kasumi-1 cells are observed to grow individually or in small clumps in suspension.
# Kasumi-1 cells are cultured in RPMI-1640 (Gibco A10491-01) containing 10% heat-inactivated and 0.22 μm filtered FBS (Gibco 10270-106) at a density of 3E+5 and 3E+6 viable cell/mL following the certificate of analysis.
# as §1, with “assay: Kasumi-1” for “assay: Caov-3”, “of 15000” for “of 10000”, “to Kasumi-1” for “to Caov-3”, “After 72h” for “After 72 h”, “6016739) was” for “6016739) were”
IC50 [1],Compound,IC50 (Caov-3 cells),IC50 (Kasumi-1 cells)
≤ 50 nM,"CC(C)CN[C@@H]1CCCN(c2ccc(C3(n4cc(-c5cncc(C6CC6)c5)nn4)COC3)nc2)C1 [Compound 329, (R)-1-(6-(3-(4-(5-cyclopropylpyridin-3-yl)-1H-1,2,3-triazol-1-yl)oxetan-3-yl)pyridin-3-yl)-N-isobutylpiperidin-3-amine]",≤ 500 nM,≤ 500 nM
≤ 50 nM,"COc1cncc(-c2ncc(C(C)c3ccc(N4CCC[C@@H](NCC5CCC5)C4)cn3)s2)c1 (single isomer, unassigned) [Compound 181]",500 to 5000 nM,500 to 5000 nM
≤ 50 nM,"CC(n1cc(-c2cncc(N(C)C)n2)nn1)n1ccc(N2CCC[C@@H](NCC3CC3)C2)cc1=O (single isomer, unassigned) [Compound 186]",≤ 500 nM,≤ 500 nM
≤ 50 nM,"c1nnc(-c2cn(C3(c4ccc(N5CCC[C@@H](NCC6CC6)C5)cn4)COC3)nn2)cc1N1CCCC1 [Compound 202, (R)-N-(cyclopropylmethyl)-1-(6-(3-(4-(5-(pyrrolidin-1-yl)pyridazin-3-yl)-1H-1,2,3-triazol-1-yl)oxetan-3-yl)pyridin-3-yl)piperidin-3-amine]",≤ 500 nM,≤ 500 nM
≤ 50 nM,"COc1cncc(-c2cn(C3(c4ccc(N5CCC[C@@H](NCC6CCC6)C5)cn4)COC3)cn2)c1 [Compound 267, (R)-N-(cyclobutylmethyl)-1-(6-(3-(4-(5-methoxypyridin-3-yl)-1H-imidazol-1-yl)oxetan-3-yl)pyridin-3-yl)piperidin-3-amine]",500 to 5000 nM,500 to 5000 nM
≤ 50 nM,"O=c1cc(-c2cn(C3(c4ccc(N5CCC[C@@H](NCC6CC6)C5)cn4)COC3)nn2)nc2ccccn12 [Compound 316, (R)-2-(1-(3-(5-(3-((cyclopropylmethyl)amino)piperidin-1-yl)pyridin-2-yl)oxetan-3-yl)-1H-1,2,3-triazol-4-yl)-4H-pyrido[1,2-a]pyrimidin-4-one]",500 to 5000 nM,500 to 5000 nM
≤ 50 nM,"COc1cncc(-c2cn(C(C)c3ccc(N4CCC[C@@H](NCC5CCC5)C4)nn3)nn2)c1 (single isomer, unassigned) [Compound 066]",500 to 5000 nM,500 to 5000 nM
≤ 50 nM,"CC(c1ccc(N2CCC[C@@H](NCC3CCC3)C2)nn1)n1cc(-c2cncc(N3CCCC3)c2)nn1 (stereo partly drawn) [Compound 257, (3R)—N-(cyclobutylmethyl)-1-(6-(1-(4-(5-(pyrrolidin-1-yl)pyridin-3-yl)-1H-1,2,3-triazol-1-yl)ethyl)pyridazin-3-yl)piperidin-3-amine]",≤ 500 nM,≤ 500 nM
≤ 50 nM,"CC(n1cc(-c2cncc(N3CCN(C)CC3)c2)nn1)n1ccc(N2CCC[C@@H](NCC3CCC3)C2)cc1=O (single isomer, unassigned) [Compound 168]",≤ 500 nM,500 to 5000 nM
≤ 50 nM,"COc1cncc(-c2cn(C(C)c3ccc(N4CCC[C@@H](NCC5CCC5)C4)nc3F)nn2)c1 (single isomer, unassigned) [Compound 138]",500 to 5000 nM,500 to 5000 nM
≤ 50 nM,"CC(c1cnn(-c2cncc(C3CC3)c2)c1)c1ccc(N2CCC[C@@H](NCC3CC3)C2)cn1 (single isomer, unassigned) [Compound 356]",≤ 500 nM,≤ 500 nM
,"COc1cc(-c2cn(Cc3ccc(N4CCC[C@@H](N(C)CC5CCC5)C4)nn3)nn2)c2cn[nH]c2c1 [Compound 022, (R)-N-(cyclobutylmethyl)-1-(6-((4-(6-methoxy-1H-indazol-4-yl)-1H-1,2,3-triazol-1-yl)methyl)pyridazin-3-yl)-N-methylpiperidin-3-amine]",> 5000 nM,500 to 5000 nM
≤ 50 nM,"COc1cc(-c2cn(Cc3ncc(N4CCCC(NCC5CCC5)C4)cn3)nn2)c2cn[nH]c2c1 (stereo not drawn) [Compound 043, N-(cyclobutylmethyl)-1-(2-((4-(6-methoxy-1H-indazol-4-yl)-1H-1,2,3-triazol-1-yl)methyl)pyrimidin-5-yl)piperidin-3-amine]",,> 5000 nM
,"COc1cc(-c2cn(Cc3ccc(N4CCC[C@@H](NC5CCCC5)C4)nn3)nn2)c2cn[nH]c2c1 [Compound 023, (R)-N-cyclopentyl-1-(6-((4-(6-methoxy-1H-indazol-4-yl)-1H-1,2,3-triazol-1-yl)methyl)pyridazin-3-yl)piperidin-3-amine]",500 to 5000 nM,500 to 5000 nM
50 to 500 nM,"COc1cc(-c2cn(Cc3cnc(N4CCCC(NCC5CCC5)C4)nc3)nn2)c2cn[nH]c2c1 (stereo not drawn) [Compound 046, N-(cyclobutylmethyl)-1-(5-((4-(6-methoxy-1H-indazol-4-yl)-1H-1,2,3-triazol-1-yl)methyl)pyrimidin-2-yl)piperidin-3-amine]",,> 5000 nM
50 to 500 nM,"COc1cc(-c2cn(Cn3cnc(N4CCC[C@@H](NCC5CCC5)C4)cc3=O)nn2)c2cn[nH]c2c1 [Compound 041, (R)-6-(3-((cyclobutylmethyl)amino)piperidin-1-yl)-3-((4-(6-methoxy-1H-indazol-4-yl)-1H-1,2,3-triazol-1-yl)methyl)pyrimidin-4(3H)-one]",,> 5000 nM
≤ 50 nM,"CC(c1ccc(N2CCC[C@@H](NCC3CC3)C2)nn1)c1nnc(-c2cncc(N3CCCC3)n2)s1 (stereo partly drawn) [Compound 353, (3R)—N-(cyclopropylmethyl)-1-(6-(1-(5-(6-(pyrrolidin-1-yl)pyrazin-2-yl)-1,3,4-thiadiazol-2-yl)ethyl)pyridazin-3-yl)piperidin-3-amine]",≤ 500 nM,
50 to 500 nM,"COc1cc(-c2cn(Cc3ccc(N4CCCC(NCC5CCC5)C4)c(=O)[nH]3)nn2)c2cn[nH]c2c1 (stereo not drawn) [Compound 052, 3-(3-((cyclobutylmethyl)amino)piperidin-1-yl)-6-((4-(6-methoxy-1H-indazol-4-yl)-1H-1,2,3-triazol-1-yl)methyl)pyridin-2(1H)-one]",,> 5000 nM
≤ 50 nM,"COc1cc(-c2cn(Cc3n[nH]c(N4CCC[C@@H](NCC5CCC5)C4)cc3=O)nn2)c2cn[nH]c2c1 [Compound 039, (R)-6-(3-((cyclobutylmethyl)amino)piperidin-1-yl)-3-((4-(6-methoxy-1H-indazol-4-yl)-1H-1,2,3-triazol-1-yl)methyl)pyridazin-4(1H)-one]",,> 5000 nM
50 to 500 nM,"c1ncc(C2CC2)cc1-c1cn(C2(c3ccc(N4CCC[C@H](NCC5CC5)C4)cn3)COC2)nn1 [Compound 351, (S)—N-(cyclopropylmethyl)-1-(6-(3-(4-(5-cyclopropylpyridin-3-yl)-1H-1,2,3-triazol-1-yl)oxetan-3-yl)pyridin-3-yl)piperidin-3-amine]",,500 to 5000 nM
50 to 500 nM,"O=C(NCc1ccc(N2CCCC(N3CCC4(CC3)CC4)C2)nn1)c1cc(=O)n2ccccc2n1 (stereo not drawn) [Compound 014, N-((6-(3-(6-azaspiro[2.5]octan-6-yl)piperidin-1-yl)pyridazin-3-yl)methyl)-4-oxo-4H-pyrido[1,2-a]pyrimidine-2-carboxamide]",,
≤ 50 nM,"CC(c1ccc(N2CCC[C@@H](NCC3CCC3)C2)cn1)n1cc(-c2cc(=O)n3ccccc3n2)nn1 (mixture of isomers) [Compound 099, 2-(1-(1-(5-((R)-3-((cyclobutylmethyl)amino)piperidin-1-yl)pyridin-2-yl)ethyl)-1H-1,2,3-triazol-4-yl)-4H-pyrido[1,2-a]pyrimidin-4-one]",,
≤ 50 nM,CC(n1cc(-c2cncc3[nH]ncc23)nn1)n1ccc(N2CCC[C@@H](NCC3CCC3)C2)cc1=O (stereo partly drawn) [Compound 147],,
